For assay [1], the target named is T1, pAbl kinase (Seq. ID no. 1) (Homo sapiens, UniProt P00519).
T1 construct: His6 with TEV cleavage site ([…] leader) (N); purchased deCode Genetics
T1 sequence (P00519 with tags, fused parts or gaps): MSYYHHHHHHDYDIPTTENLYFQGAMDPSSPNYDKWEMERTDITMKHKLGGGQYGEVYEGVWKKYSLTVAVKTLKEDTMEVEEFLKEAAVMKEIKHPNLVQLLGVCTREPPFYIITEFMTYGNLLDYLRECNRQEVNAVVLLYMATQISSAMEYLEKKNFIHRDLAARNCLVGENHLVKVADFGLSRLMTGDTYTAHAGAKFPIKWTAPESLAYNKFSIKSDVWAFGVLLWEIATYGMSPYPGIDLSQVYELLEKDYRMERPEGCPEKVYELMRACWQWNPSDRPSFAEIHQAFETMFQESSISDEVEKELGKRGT
The experiment in a line: pAbl kinase spectrophotometric coupled kinase assay. In kind it is biochemical. Conditions: for IC50: phosphorylated-Abl kinase, 2 h preincubation, ATP 500 μM, read-out: p-Abl IC50. The protocol:
pAbl Kinase Assay Activity of pAbl kinase (Seq. […] Science (2000) 289, 1938-1942). In this assay, the oxidation of NADH (thus the decrease at […]) was continuously monitored spectrophometrically. […] Test compounds were incubated with pAbl (SEQ. […] The absorption at 340 nm was monitored continuously for 2 hours at 30° C. on Polarstar Optima plate reader (BMG). The reaction rate was calculated using the 1.0 to 2.0 h time frame. Percent inhibition was obtained by comparison of reaction rate with that of a control (i.e. with no test compound). IC50 values were calculated from a series of percent inhibition values determined at a range of inhibitor concentrations using software routines as implemented in the GraphPad Prism software package. pAbl was obtained as a phosphorylated form of the enzyme used in the Abl assay (see above).

The target in assay [2] is T2, Abl(T315I) (Seq. ID no. 2) kinase (Homo sapiens, UniProt P00519, T315I).
T2 construct: His6 with TEV cleavage site ([…] leader) (N); purchased decode Genetics
T2 sequence (P00519 with tags, fused parts or gaps T315I): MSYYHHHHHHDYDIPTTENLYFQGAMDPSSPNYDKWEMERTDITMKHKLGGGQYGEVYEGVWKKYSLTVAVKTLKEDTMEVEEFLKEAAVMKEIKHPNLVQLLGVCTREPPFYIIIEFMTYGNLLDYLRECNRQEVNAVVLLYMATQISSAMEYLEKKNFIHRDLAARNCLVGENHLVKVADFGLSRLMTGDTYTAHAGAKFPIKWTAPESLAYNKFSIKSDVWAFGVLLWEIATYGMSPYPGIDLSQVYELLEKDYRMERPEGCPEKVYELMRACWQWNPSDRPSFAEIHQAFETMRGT
Put plainly: Abl(T315I) kinase spectrophotometric coupled kinase assay. In kind it is biochemical. The note with it: for IC50: T315I mutant Abl kinase, 2 h preincubation, ATP 500 μM. The protocol:
(§1) Science (2000) 289, 1938-1942). In this assay, the oxidation of NADH (thus the decrease at A340nm) was continuously monitored spectrophometrically. […] (SEQ. […] The absorption at 340 nm was monitored continuously for 2 hours at 30° C. on Polarstar Optima plate reader (BMG). The reaction rate was calculated using the 1.0 to 2.0 h time frame. Percent inhibition was obtained by comparison of reaction rate with that of a control (i.e. with no test compound). IC50 values were calculated from a series of percent inhibition values determined at a range of inhibitor concentrations using software routines as implemented in the GraphPad Prism software package.

For assay [3], the system named is BaF3 cells transfected with bcr-Abl point mutant M351T. The experiment in a line: Cell proliferation assay, BaF3 M351T bcr-abl. The format is cell-based. Conditions: Mus musculus, 72 hours, Cell Titer Blue. The method, then:
(§2) Briefly, cells were grown in RPMI 1640 supplemented with 10% characterized fetal bovine serum (HyClone, Logan, Utah) at 37 degrees Celsius, 5% CO2, 95% humidity. Cells were allowed to expand until reaching 80% saturation at which point they were subcultured or harvested for assay use.
(§3) A serial dilution of test compound was dispensed into a 96 well black clear bottom plate (Corning, Corning, N.Y.). For each cell line, three thousand cells were added per well in complete growth medium. Plates were incubated for 72 hours at 37 degrees Celsius, 5% CO2, 95% humidity. At the end of the incubation period Cell Titer Blue (Promega, Madison, Wis.) was added to each well and an additional 4.5 hour incubation at 37 degrees Celsius, 5% CO2, 95% humidity was performed. Plates were then read on a BMG Fluostar Optima (BMG, Durham, N.C.) using an excitation of 544 nm and an emission of 612 nm. Data was analyzed using Prism software (Graphpad, San Diego, Calif.) to calculate IC50's.
For orientation: Alamar Blue is a resazurin reagent that responds to reducing activity.

For assay [4], the system named is BaF3 cells transfected with bcr-Abl point mutant T315I. The experiment in a line: Cell proliferation assay, BaF3 T315I bcr-abl. In kind it is cell-based. The note with it: Mus musculus, 72 hours, Cell Titer Blue. The method, then: as §2, §3
Assay [5] concerns BaF3 cells transfected with bcr-Abl point mutant E255K. Put plainly: Cell proliferation assay, BaF3 E255K bcr-abl. In kind it is cell-based. The note with it: Mus musculus, 72 hours, Cell Titer Blue. The method, then: as §2, §3
The test system of assay [6] is BaF3 cells transfected with wild type bcr-Abl. The experiment in a line: Cell proliferation assay, BaF3 wt bcr-abl. In kind it is cell-based. The note with it: Mus musculus, 72 hours, Cell Titer Blue. The method, then: as §2, §3
Assay [7] addresses T3, Abl kinase (Seq. ID no. 1) (Homo sapiens, UniProt P00519).
T3 construct: His6 with TEV cleavage site ([…] leader) (N); purchased deCode Genetics
T3 sequence (P00519 with tags, fused parts or gaps): T1 sequence (P00519 with tags, fused parts or gaps)
Put plainly: Abl kinase (u-Abl) spectrophotometric coupled kinase assay. The format is biochemical. The note with it: for IC50: unphosphorylated-Abl kinase, 2 h preincubation, ATP 500 μM. The method, then:
as §1, with “Abl kinase (Seq. […] Activity of Abl kinase (Seq. […] Science” for “Science”, “A340 nm)” for “A340nm)”, “Test compounds were incubated with Abl kinase (Seq.” for “(SEQ.”

The subject of assay [8] is BaF3 cells transfected with bcr-Abl point mutant Y253F. Put plainly: Cell proliferation assay, BaF3 Y253F bcr-abl. The note with it: Mus musculus, 72 hours, Cell Titer Blue. In kind it is cell-based. The protocol:
as §2, §3

By IC50 is commonly meant the concentration that inhibits the measured activity by half. As for `CC(C)c1cc(NC(=O)Nc2ccc(Oc3ccnc(C(N)=O)c3)cc2F)n(-c2ccc3ncccc3c2)n1` [Example 15, 1-(4-(2-carbamoylpyridin-4-yloxy)-2-fluorophenyl)-3-(3-isopropyl-1-(quinolin-6-yl)-1H-pyrazol-5-yl)urea], the IC50 in assay [1] is 35 nM; in assay [2], 56 nM; in assay [3], 13 nM; in assay [4] it was 25 nM; in assay [5], 238 nM; in assay [6], 11 nM. The IC50 in assay [7] was 1 nM; in assay [8], 86 nM. Besides, in assay [1] (relative to Compound B), the “times more potent vs. p-Abl kinase than Compound B” value is reported as more than 14 times. In addition, the “times more potent vs. T315I mutant Abl kinase than Compound B” value in assay [2] (relative to Compound B) was 18 times. The “times more potent vs. u-Abl kinase than Compound B” value in assay [7] (relative to unsubstituted (R16=H) Compound B) is 8 times.
For `CNC(=O)c1cc(Oc2ccc(NC(=O)Nc3cc(C(C)(C)C)nn3-c3ccc4[nH]ncc4c3)c(F)c2)ccn1` [Example 4, 1-(3-tert-butyl-1-(1H-indazol-5-yl)-1H-pyrazol-5-yl)-3-(2-fluoro-4-(2-(methylcarbamoyl)pyridin-4-yloxy)phenyl)urea], the results for the IC50 in assay [1], in assay [2] and in assay [7] were 20 nM, 12 nM and 0.7 nM, respectively. Besides, the “times more potent vs. p-Abl kinase than Compound C” value in assay [1] (relative to Compound C) is given as 18 times. For the same compound, the “times more potent vs. T315I mutant Abl kinase than Compound C” value in assay [2] (relative to Compound C) came out at 13 times. Besides, the “times more potent vs. u-Abl kinase than Compound C” value in assay [7] (relative to unsubstituted (R16=H) Compound C) was found to be 2.2 times.
With `CNC(=O)c1cc(Oc2ccc(NC(=O)Nc3cc(C(C)(C)C)nn3-c3ccc4ncccc4c3)cc2C)ccn1` [Example 5, 1-(3-tert-butyl-1-(quinolin-6-yl)-1H-pyrazol-5-yl)-3-(3-methyl-4-(2-(methylcarbamoyl)pyridin-4-yloxy)phenyl)urea], the IC50 in assay [1] was found to be 6 nM; in assay [2], 250 nM; in assay [3], 10 nM; in assay [4], 25 nM; in assay [5], 62 nM; in assay [6], 8 nM. The IC50 in assay [7] stood at 0.7 nM; in assay [8], 15 nM. In addition, the “times more potent vs. p-Abl kinase than Compound A” value in assay [1] (relative to unsubstituted (R16=H) Compound A) turned out to be 4 times.

Source of the values: patent US8586565B2, “Kinase inhibitors useful for the treatment of myleoproliferative diseases and other proliferative diseases” (Deciphera Pharmaceuticals, LLC, priority 2006, dated 2013).
